The record followed here is US10804000B2, “High efficiency continuous-flow production of radioisotopes” (priority 2016, dated 2020).

A value given as a limit tells only on which side of the number the result lay.

Series [1] is described as follows: Pre-irradiation solubility tests of lanthanide complexes in the water capture matrix (neutron activation analysis of washes). The series is classed as physicochemical. The settings on record: for solubility in water: in words, from pre-irradiation washes; for % Activity in wash 1: first pre-irradiation wash with 0.5 mL ultra-pure H2O, 153Sm at 103 keV, 166Ho at 81 keV; for % Activity in wash 1 / % Activity in wash 2: indicates solubility in capture matrix; for % Activity in wash 2: second pre-irradiation wash with H2O. The procedure: The solubility of the lanthanide complexes in the water capture matrix was determined by mixing a few milligrams of the lanthanide-containing target solid thoroughly with 0.5 mL of ultra-pure H2O then separating the solution from the solid utilizing centrifugal filter tubes (EMD Millipore). A second wash of the solid was obtained using the same procedure. The solid and the washes were submitted for neutron activation analysis in order to determine the solubility of the lanthanide containing target in H2O.
Post irradiation, the samples were left to cool for a predetermined amount of time to allow any short-lived radioisotopes to decay, before being transferred to the laboratory for treatment and analysis. The capture matrix was filtered and separated from the solid in order to separate any recoiled radiolanthanide. The solid residue and capture matrix were collected for analysis of the activity of the radiolanthanide. The pre-irradiation solubility test washes along with standards were also prepared for analysis. The samples were analyzed for radiolanthanide activity using a High Purity Germanium detector (HPGe) at the representative gamma energy of the radiolanthanide of interest.
All the samples for a particular compound were irradiated as a group, along with standards for calibration purposes and direct comparisons of activities. In samples that were not treated post irradiation by separation (e.g. as in the case of target and capture matrix) the activity of the radiolanthanide is directly related to the total concentration of the corresponding lanthanide. The count rate measured in each sample was normalized to a single point in time to account for decay during measurements. Both pre-irradiation washes were collected to give an indication of the solubility of the lanthanide complex in the capture matrix (H2O). The second wash was obtained to determine if the lanthanide activity detected in the first wash was actually due to solubility of the lanthanide containing target or due to factors such as impurities or the presence of uncomplexed lanthanide that came off in the first wash. […] Radiolanthanides that recoiled out but reformed bonds with the solid compound would appear as retained as well. […] Activity in the capture matrix may also reflect dissolution of the target matrix rather than recoil.

Series [2] is described as follows: Irradiation of ammonium molybdate phosphate powder, 99Mo activity in washes, target and capture matrix. The source says:
Wash 1, Wash 2, and the irradiated molybdenum target were all analyzed for ^99Mo activity using gamma spectroscopy at the prominent ^99Mo peak of 141 KeV.
Post irradiation the capture matrix was separated from the irradiation target and washed an additional time to determine post irradiation solubility (wash 1).

With “Samarium 8-hydroxyquinolinate [Compound 4]”, the solubility in water entry in series [1] was “low”.
Regarding Holmium 4-aminobenzoate [Compound 6], in series [1], the “% Activity in wash 1” value is listed as 7.0 ± 1.6%, the solubility in water result is recorded as “soluble in water” and the “% Activity in wash 2” value is given as 7.7 ± 1.7%.
The like results for Samarium 4-aminobenzoate [Compound 2] were, in that order, 27.3 ± 3.0%, “soluble in water” and 26.8 ± 2.9%.
In the case of ammonium molybdate phosphate [Sample 1], the “% Activity in wash 1” value in series [2] (99Mo, sample 1: powder irradiated 15 min at 8×10^11 n cm^−2 s^−1, contacted with water post irradiation) was less than 1%. In addition, the “% Activity in wash 2” value in series [2] (99Mo, sample 1: powder irradiated, contacted with water post irradiation) was less than 1%. Besides, the “99Mo activity detected in the capture matrix” value in series [2] (sample 1, water contacted post irradiation) is reported as “less than 1%”.
ammonium molybdate phosphate [Sample 2]: in series [2] (99Mo, sample 2: irradiated in contact with water capture matrix, additional wash post irradiation), the “% Activity in wash 1” value was 1.3%.
“Holmium 8-hydroxyquinolinate [Compound 5]”: the solubility in water entry in series [1] is given as “low solubility in the first wash”.
